Measurements from patent US12576075B2, “Combination therapies for treating cancer” (Institute For Cancer Research, priority 2018, dated 2026).

Columns and labels:
786-O cells [1] = experiment: Dose-dependent anti-proliferative effects on 786-O cells (dose response); assay type: cell-based, human; conditions: for ED75 / ED90: single drug dose response; for EC50: Homo sapiens, 786-0, single drug dose response, read-out: ED50 (the source's name)
PNX0010 RCC cells = experiment: Cell viability, […]-BLUE assay, PNX0010; assay type: cell-based, human; design: dose or concentration left out as unconfirmed; conditions: 72 hours
Method: (§1) Treatment with lonafarnib can reinstate sensitivity of RCC cells to TKIs. Pharmacological inhibition of FTase enhances the antitumor activity of sunitinib. Referring to FIG. 3, in Panel A, PNX0010 and 786-O RCC cells were treated with various combinations of lonafarnib ([…]), sunitinib ([…]), and pazopanib ([…]) for 72 hours. Cell viability was examined using Blue […]-BLUE® assay (PROMEGA®). In Panel B, 786-O and PNX0010 RCC cells were treated with lonafarnib ([…]) and/or sunitinib ([…]) for 24 hours. DNA fragmentation was examined by the APO-BRDU kit (The Phoenix Flow Systems) followed by flow cytometry analysis.

786-O RCC cells = experiment: Cell viability, […]-BLUE assay, 786-O; assay type: cell-based, human; design: dose or concentration left out as unconfirmed; conditions: 72 hours
Method: as §1

786-O cells [2] = experiment: Lysosomal sequestration of sunitinib by fluorescent microscopy; assay type: cell-based, human; design: Sequestration of sunitinib within lysosomes: dose or concentration left out as unconfirmed
PNXC0010 RCC tumors = assay type: in vivo; conditions: PNX0010 subcutaneous xenografts, C.B17/lcrscid mice, 40 mg/kg each drug, orally 3 times/week
Method: PNX0010 subcutaneous xenografts were established in 6 week old male C.B17/lcrscid mice. The mice were treated orally 3 times/week with (i) 10% 2-hydroxypropyl-b-cyclodextrin in PBS (control); (ii) sunitinib (40 mg/kg); (iii) lonafarnib (40 mg/kg); or with sunitinib and lonafarnib combined (n=5 mice/group). Tumor volumes were calculated by the formula: (volume=0.52×(width)2×length).

SMILES	ED75 (786-O cells [1]) [µM]	ED90 (786-O cells [1]) [µM]	Effect on cell viability (PNX0010 RCC cells)	Effect on cell viability (786-O RCC cells)	Sequestration of sunitinib within lysosomes (786-O cells [2]; 60 minutes)	Total cellular accumulation of sunitinib (786-O cells [2]; effect of lonafarnib, data not shown)	Growth of xenograft tumors (tumor volume) (PNXC0010 RCC tumors)	EC50 (786-O cells [1]) [µM]
CNC(=O)c1ccccc1Sc1ccc2c(/C=C/c3ccccn3)n[nH]c2c1 [Axitinib, axitinib]	7.5	65.1						
NC(=O)N1CCC(CC(=O)N2CCC([C@H]3c4ncc(Br)cc4CCc4cc(Cl)cc(Br)c43)CC2)CC1 [Lonafarnib, lonafarnib]	63.3	5672.0	modest effect	modest effect	significantly reduced	not affected	moderate decrease	3.8
CCN(CC)CCNC(=O)c1c(C)[nH]c(/C=C2\C(=O)Nc3ccc(F)cc32)c1C [Sunitinib, sunitinib]	6.7	44.3						2.4
